Source: US9695163B2, “Thiazole orexin receptor antagonists” (MERCK SHARP & DOHME CORP., priority 2013, dated 2017)
pIC50: −log10 of the molar value.

Legend:
[1] = target: human orexin-2 receptor (hOX2R) (Homo sapiens (Human), UniProt O43614); assay: FLIPR Ca2+ Flux Assay, CHO cells expressing human orexin-2 receptor; assay type: cell-based; settings: agonist Ala-6,12 human orexin-A 70 pM
Procedure: Briefly, for intracellular calcium measurements, Chinese hamster ovary (CHO) cells expressing the orexin-1 receptor (e.g., rat or human) or the orexin-2 receptor (e.g., rat or human), are grown in Iscove's modified DMEM containing 2 mM L-glutamine, […], 1% hypoxanthine-thymidine supplement, 100 U/ml penicillin, 100 μg/ml streptomycin and 10% heat-inactivated fetal calf serum (FCS). The cells are seeded at approximately 20,000 cells per well into 384-well clear bottom sterile plates coated with poly-D-lysine. The seeded plates are incubated overnight at 37° C. and 5% CO2. Human ala-6,12 orexin-A can be used as the agonist and prepared as a 1 mM stock solution in 1% bovine serum albumin (BSA) and diluted in assay buffer (HBSS containing 20 mM HEPES, 0.1% BSA and 2.5 mM probenecid, pH7.4) for use in the assay at a final concentration of 70 pM. Test compounds are prepared as 10 mM stock solution in DMSO, then diluted in 384-well plates, first in DMSO, then in assay buffer. On the day of the assay, cells are washed 3 times with 100 μl assay buffer and then incubated for 60 minutes (37° C., 5% CO2) in 60 μl assay buffer containing 1 μM Fluo-4 AM ester, 0.02% pluronic acid, and 1% BSA. The dye loading solution is then aspirated and cells are washed 3 times with 100 μl assay buffer. 30 μl of that same buffer is left in each well. Within the Fluorescent Imaging Plate Reader (FLIPR, Molecular Devices), test compounds are added to the plate in a volume of 25 μl, incubated for 5 minutes, and then 25 μl of agonist is added. Fluorescence is measured for each well at 1 second intervals for 5 minutes, and the height of each fluorescence peak is compared to the height of the fluorescence peak induced by 70 pM of agonist ala-6,12 orexin-A with buffer in place of test compound. IC50 value for the test compound is determined to be the concentration of compound needed to inhibit 50% of the agonist response. Alternatively, compound potency can be assessed using a radioligand binding assay (described in Bergman et. al., Bioorg. Med. Chem. Lett. 2008, 18:1425-1430) in which the inhibition constant (Ki) is determined in membranes prepared from CHO cells expressing either the OX1 or OX2 receptor. The intrinsic orexin receptor antagonist activity of a compound of the present invention may be determined by these assays. […]

[2] = target: human orexin-1 receptor (hOX1R) (Homo sapiens (Human), UniProt O43613); assay: FLIPR Ca2+ Flux Assay, CHO cells expressing human orexin-1 receptor; assay type: cell-based; settings: agonist Ala-6,12 human orexin-A 70 pM
Text: The utility of the compounds in accordance with the present invention as orexin receptor OX1R and/or OX2R antagonists may be readily determined without undue experimentation by methodology well known in the art, including the “FLIPR Ca^2+ Flux Assay” (Okumura et al., Biochem. Biophys. Res. Comm. 2001, 280:976-981). Briefly, for intracellular calcium measurements, Chinese hamster ovary (CHO) cells expressing the orexin-1 receptor (e.g., rat or human) or the orexin-2 receptor (e.g., rat or human), are grown in Iscove's modified DMEM containing 2 mM L-glutamine, […], 1% hypoxanthine-thymidine supplement, 100 U/ml penicillin, 100 μg/ml streptomycin and 10% heat-inactivated fetal calf serum (FCS). The cells are seeded at approximately 20,000 cells per well into 384-well clear bottom sterile plates coated with poly-D-lysine. The seeded plates are incubated overnight at 37° C. and 5% CO2. Human ala-6,12 orexin-A can be used as the agonist and prepared as a 1 mM stock solution in 1% bovine serum albumin (BSA) and diluted in assay buffer (HBSS containing 20 mM HEPES, 0.1% BSA and 2.5 mM probenecid, pH7.4) for use in the assay at a final concentration of 70 pM. Test compounds are prepared as 10 mM stock solution in DMSO, then diluted in 384-well plates, first in DMSO, then in assay buffer. On the day of the assay, cells are washed 3 times with 100 μl assay buffer and then incubated for 60 minutes (37° C., 5% CO2) in 60 μl assay buffer containing 1 μM Fluo-4 AM ester, 0.02% pluronic acid, and 1% BSA. The dye loading solution is then aspirated and cells are washed 3 times with 100 μl assay buffer. 30 μl of that same buffer is left in each well. Within the Fluorescent Imaging Plate Reader (FLIPR, Molecular Devices), test compounds are added to the plate in a volume of 25 μl, incubated for 5 minutes, and then 25 μl of agonist is added. Fluorescence is measured for each well at 1 second intervals for 5 minutes, and the height of each fluorescence peak is compared to the height of the fluorescence peak induced by 70 pM of agonist ala-6,12 orexin-A with buffer in place of test compound. IC50 value for the test compound is determined to be the concentration of compound needed to inhibit 50% of the agonist response. Alternatively, compound potency can be assessed using a radioligand binding assay (described in Bergman et. al., Bioorg. Med. Chem. Lett. 2008, 18:1425-1430) in which the inhibition constant (Ki) is determined in membranes prepared from CHO cells expressing either the OX1 or OX2 receptor. The intrinsic orexin receptor antagonist activity of a compound of the present invention may be determined by these assays.

human orexin-2 receptor (hOX2R), sequence (O43614 whole entry): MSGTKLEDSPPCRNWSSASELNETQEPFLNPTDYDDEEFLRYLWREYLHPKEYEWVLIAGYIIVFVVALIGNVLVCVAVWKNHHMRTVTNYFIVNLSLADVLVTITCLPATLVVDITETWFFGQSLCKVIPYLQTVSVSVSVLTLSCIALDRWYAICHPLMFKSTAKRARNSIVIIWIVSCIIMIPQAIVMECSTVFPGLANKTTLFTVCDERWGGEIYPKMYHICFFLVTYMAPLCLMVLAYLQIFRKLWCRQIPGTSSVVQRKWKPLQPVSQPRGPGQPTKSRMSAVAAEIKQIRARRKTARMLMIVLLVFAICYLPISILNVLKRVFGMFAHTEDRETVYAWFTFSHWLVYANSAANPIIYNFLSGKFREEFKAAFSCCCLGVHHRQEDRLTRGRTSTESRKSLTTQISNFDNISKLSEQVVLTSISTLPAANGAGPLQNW
human orexin-1 receptor (hOX1R), sequence (O43613 whole entry): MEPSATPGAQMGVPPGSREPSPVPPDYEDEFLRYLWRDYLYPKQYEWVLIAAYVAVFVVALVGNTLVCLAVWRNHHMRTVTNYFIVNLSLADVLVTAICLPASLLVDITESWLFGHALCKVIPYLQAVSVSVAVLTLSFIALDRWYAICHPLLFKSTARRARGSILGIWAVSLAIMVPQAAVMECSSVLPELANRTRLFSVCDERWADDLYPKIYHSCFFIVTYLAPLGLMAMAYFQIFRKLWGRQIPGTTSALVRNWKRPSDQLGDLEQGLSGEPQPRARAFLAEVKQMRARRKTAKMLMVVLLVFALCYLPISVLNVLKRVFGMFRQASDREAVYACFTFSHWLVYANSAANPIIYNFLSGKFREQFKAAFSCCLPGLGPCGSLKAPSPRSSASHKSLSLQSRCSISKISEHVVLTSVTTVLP

Row | Structure (SMILES) | pIC50 [1] | pIC50 [2]
1 | C[C@@H]1CC[C@@H](c2nc([C@H](O)C(F)(F)F)cs2)CN1C(=O)c1ccccc1-n1nccn1 [Example 6, (2-(2H-1,2,3-triazol-2-yl)phenyl)((2R,5R)-2-methyl-5-(4-((S)-2,2,2-trifluoro-1-hydroxyethyl)thiazol-2-yl)piperidin-1-yl)methanone] | 6.78 | 5.00
2 | Cc1sc([C@@H]2CC[C@@H](C)N(C(=O)c3ccc(F)cc3-n3nccn3)C2)nc1C(C)(C)O [Example 22, (4-fluoro-2-(2H-1,2,3-triazol-2-yl)phenyl)((2R,5R)-5-(4-(2-hydroxypropan-2-yl)-5-methylthiazol-2-yl)-2-methylpiperidin-1-yl)methanone] | 7.70 | 6.03
3 | C[C@@H]1CC[C@@H](c2csc(C(C)(C)O)n2)CN1C(=O)c1cscc1-n1nccn1 [Example 35, (4-(2H-1,2,3-triazol-2-yl)thiophen-3-yl)((2R,5R)-5-(2-(2-hydroxypropan-2-yl)thiazol-4-yl)-2-methylpiperidin-1-yl)methanone] | 7.85 | < 5.00
4 | Cc1sc([C@@H]2CC[C@@H](C)N(C(=O)c3cscc3-c3ncccn3)C2)nc1C(C)(C)O [Example 28, ((2R,5R)-5-(4-(2-Hydroxypropan-2-yl)-5-methylthiazol-2-yl)-2-methylpiperidin-1-yl)(4-(pyrimidin-2-yl)thiophen-3-yl)methanone] | 7.54 | 6.05
5 | C[C@@H]1CC[C@@H](c2csc(C(C)(C)O)n2)CN1C(=O)c1ccccc1-n1ncnn1 [Example 29, (2-(2H-Tetrazol-2-yl)phenyl)((2R,5R)-5-(2-(2-hydroxypropan-2-yl)thiazol-4-yl)-2-methylpiperidin-1-yl)methanone] | 7.82 | –
6 | C[C@@H]1CC[C@@H](c2nc(C(C)(C)O)cs2)CN1C(=O)c1ccsc1-n1nccn1 [Example 10, (2-(2H-1,2,3-triazol-2-yl)thiophen-3-yl)((2R,5R)-5-(4-(2-hydroxypropan-2-yl)thiazol-2-yl)-2-methylpiperidin-1-yl)methanone] | 7.72 | 5.13
7 | Cc1sc([C@@H]2CC[C@@H](C)N(C(=O)c3ccsc3-n3nccn3)C2)nc1C(C)(C)O [Example 20, (2-(2H-1,2,3-triazol-2-yl)thiophen-3-yl)((2R,5R)-5-(4-(2-hydroxypropan-2-yl)-5-methylthiazol-2-yl)-2-methylpiperidin-1-yl)methanone] | 7.92 | 6.01
8 | Cc1sc([C@@H]2CC[C@@H](C)N(C(=O)c3ccccc3-n3nccn3)C2)nc1C(C)(C)O [Example 19, (2-(2H-1,2,3-Triazol-2-yl)phenyl)((2R,5R)-5-(4-(2-hydroxypropan-2-yl)-5-methylthiazol-2-yl)-2-methylpiperidin-1-yl)methanone] | 7.85 | 6.48
9 | C[C@@H]1CC[C@H](c2ncc(C(C)(C)O)s2)CN1C(=O)c1ccccc1-n1nccn1 [Example 3, (2-(2H-1,2,3-Triazol-2-yl)phenyl)((2R,5S)-5-(5-(2-hydroxypropan-2-yl)thiazol-2-yl)-2-methylpiperidin-1-yl)methanone] | 5.58 | < 5.00
10 | C[C@@H]1CC[C@@H](c2nc([C@@H](O)C(F)(F)F)cs2)CN1C(=O)c1ccccc1-n1nccn1 [Example 7, (2-(2H-1,2,3-triazol-2-yl)phenyl)((2R,5R)-2-methyl-5-(4-((R)-2,2,2-trifluoro-1-hydroxyethyl)thiazol-2-yl)piperidin-1-yl)methanone] | 7.82 | 6.44
11 | Cc1sc([C@@H]2CC[C@@H](C)N(C(=O)c3ccccc3-n3ncnn3)C2)nc1C(C)(C)O [Example 24, (2-(2H-Tetrazol-2-yl)phenyl)((2R,5R)-5-(4-(2-hydroxypropan-2-yl)-5-methylthiazol-2-yl)-2-methylpiperidin-1-yl)methanone] | 7.72 | 5.58
12 | C[C@@H]1CC[C@@H](c2csc(C(C)(C)O)n2)CN1C(=O)c1ccccc1CS(C)(=O)=O [Example 34, ((2R,5R)-5-(2-(2-hydroxypropan-2-yl)thiazol-4-yl)-2-methylpiperidin-1-yl)(2-((methylsulfonyl)methyl)phenyl)methanone] | 7.40 | < 5.00
13 | C[C@@H]1CC[C@@H](c2nc(C(C)(C)O)cs2)CN1C(=O)c1ccsc1-c1ncccn1 [Example 18, ((2R,5R)-5-(4-(2-Hydroxypropan-2-yl)thiazol-2-yl)-2-methylpiperidin-1-yl)(2-(pyrimidin-2-yl)thiophen-3-yl)methanone] | 6.94 | < 5.00
14 | C[C@@H]1CC[C@@H](c2nc(C(C)(C)O)cs2)CN1C(=O)c1ccccc1C1(C#N)CC1 [Example 11, 1-(2-((2R,5R)-5-(4-(2-Hydroxypropan-2-yl)thiazol-2-yl)-2-methylpiperidine-1-carbonyl)phenyl)cyclopropanecarbonitrile] | 7.82 | 6.02
15 | C[C@@H]1CC[C@@H](c2nc(C(C)(C)O)cs2)CN1C(=O)c1ccc(F)cc1-n1nccn1 [Example 13, (4-fluoro-2-(2H-1,2,3-triazol-2-yl)phenyl)((2R,5R)-5-(4-(2-hydroxypropan-2-yl)thiazol-2-yl)-2-methylpiperidin-1-yl)methanone] | 7.72 | 5.65
16 | C[C@@H]1CC[C@@H](c2csc(C(C)(C)O)n2)CN1C(=O)c1ccccc1-c1ncccn1 [Example 33, ((2R,5R)-5-(2-(2-hydroxypropan-2-yl)thiazol-4-yl)-2-methylpiperidin-1-yl)(2-(pyrimidin-2-yl)phenyl)methanone] | 6.99 | < 5.00
17 | C[C@@H]1CC[C@@H](c2csc(C(C)(C)O)n2)CN1C(=O)c1ccccc1C1(C#N)CC1 [Example 30, 1-(2-((2R,5R)-5-(2-(2-hydroxypropan-2-yl)thiazol-4-yl)-2-methylpiperidine-1-carbonyl)phenyl)cyclopropanecarbonitrile] | 7.89 | 5.92
18 | C[C@@H]1CC[C@@H](c2csc(C(C)(C)O)n2)CN1C(=O)c1ccsc1-c1ncccn1 [Example 31, ((2R,5R)-5-(2-(2-hydroxypropan-2-yl)thiazol-4-yl)-2-methylpiperidin-1-yl)(2-(pyrimidin-2-yl)thiophen-3-yl)methanone] | 7.05 | < 5.00
19 | C[C@@H]1CC[C@@H](c2cnc(C(C)(C)O)s2)CN1C(=O)c1ccccc1-n1nccn1 [Example 4, (2-(2H-1,2,3-triazol-2-yl)phenyl)((2R,5R)-5-(2-(2-hydroxypropan-2-yl)thiazol-5-yl)-2-methylpiperidin-1-yl)methanone] | 7.30 | < 5.00
